Experiment [1] relates to HIT-T15 cells. Nature of the experiment: Stimulation of cAMP in HIT-T15 cells. It counts as cell-based, hamster. The note with it: compared with adenyl cyclase activator forskolin. As for the experimental part: C. Stimulation of cAMP in HIT-T15 Cells
HIT-T15 (ATCC CRL#1777) is an immortalized hamster insulin-producing cell line. These cells express RUP3 and therefore can be used to assess the ability of RUP3 ligands to stimulate or inhibit cAMP accumulation via its endogenously expressed receptor. In this assay, cells are grown to 80% confluence and then distributed into a 96-well Flashplate (50,000 cells/well) for detection of cAMP via a “cAMP Flashplate Assay” (NEN, Cat # SMP004). Briefly, cells are placed into anti-cAMP antibody-coated wells that contain either vehicle, the test ligand(s) at a concentration of interest, or 1 uM forskolin. The latter is a direct activator of adenylyl cyclase and serves as a positive control for stimulation of cAMP in HIT-T15 cells. All conditions are tested in triplicate. […] Bound ^125I-cAMP is detected using a Wallac Microbeta Counter. The amount of cAMP in each sample is determined by comparison to a standard curve, obtained by placing known concentrations of cAMP in some wells on the plate.
(§1) In the first of these, RUP3 agonists are used to stimulate HIT-T15 cells, which express RUP3 at significant levels, as indicated in the Northern blot shown in FIG. 4. […] In this example a RUP3 agonist can be evaluated for its ability to stimulate cAMP production in HIT cells in comparison to the level seen with the adenyl cyclase activator forskolin.

A further experiment concerns isolated rat islets. Nature of the experiment: Stimulation of insulin secretion in isolated rat islets. It counts as cell-based. As to conditions: 10 μM compound; increased glucose (e.g. 300 mg/dl). As for the experimental part:
E. Stimulation of Insulin Secretion in Isolated Rat Islets
As with HIT-T15 cells, it is known that stimulation of cAMP in isolated rat islets causes an increase in insulin secretion when the glucose concentration in the culture media is changed from 60 mg/dl to 300 mg/dl. RUP3 is an endogenously expressed GPCR in the insulin-producing cells of rat islets. Thus, RUP3 ligands can also be tested for their ability to stimulate GSIS in rat islet cultures. This assay is performed as follows: • A. Select 75-150 islet equivalents (IEQ) for each assay condition using a dissecting microscope. Incubate overnight in low-glucose culture medium (Optional.) • B. Divide the islets evenly into triplicate samples of 25-40 islet equivalents per sample. Transfer to 40 μm mesh sterile cell strainers in wells of a 6-well plate with 5 ml of low (60 mg/dl) glucose Krebs-Ringers Buffer (KRB) assay medium. • C. Incubate 30 minutes (1 hour if overnight step skipped) at 37° C. and 5% CO2. Save the supernatants if a positive control for the RIA is desired. • D. Move strainers with islets to new wells with 5 ml/well low glucose KRB. […] Freeze and store at <−20° C. until insulin concentrations can be determined. • I. Insulin determinations are done as above, or by Linco Labs as a custom service, using their rat insulin RIA (Cat # RI-13K). […]

Experiment [2] concerns HIT-T15 cells. Nature of the experiment: Stimulation of insulin secretion in HIT-T15 cells (GSIS). The format is cell-based, hamster. As to conditions: 15 mM glucose; level comparable to forskolin. As for the experimental part: D. Stimulation of Insulin Secretion in HIT-T15 Cells
It is known that stimulation of cAMP in HIT-T15 cells causes an increase in insulin secretion when the glucose concentration in the culture media is changed from 3 mM to 15 mM. Thus, RUP3 ligands can also be tested for their ability to stimulate glucose-dependent insulin secretion (GSIS) in HIT-T15 cells. In this assay, 30,000 cells/well in a 12-well plate are incubated in culture media containing 3 mM glucose and no serum for 2 hours. The media is then changed; wells receive media containing either 3 mM or 15 mM glucose, and in both cases the media contains either vehicle (DMSO) or RUP3 ligand at a concentration of interest Some wells receive media containing 1 uM forskolin as a positive control. All conditions are tested in triplicate. Cells are incubated for 30 minutes, and the amount of insulin secreted into the media is determined by ELISA, using a kit from either Peninsula Laboratories (Cat # ELIS-7536) or Crystal Chem Inc. (Cat # 90060).
as §1

The target of another experiment is T1, RUP3 (Homo sapiens, UniProt Q8TDV5).
T1 construct: expressed in transfected cells
T1 sequence (Q8TDV5 with tags, fused parts or gaps): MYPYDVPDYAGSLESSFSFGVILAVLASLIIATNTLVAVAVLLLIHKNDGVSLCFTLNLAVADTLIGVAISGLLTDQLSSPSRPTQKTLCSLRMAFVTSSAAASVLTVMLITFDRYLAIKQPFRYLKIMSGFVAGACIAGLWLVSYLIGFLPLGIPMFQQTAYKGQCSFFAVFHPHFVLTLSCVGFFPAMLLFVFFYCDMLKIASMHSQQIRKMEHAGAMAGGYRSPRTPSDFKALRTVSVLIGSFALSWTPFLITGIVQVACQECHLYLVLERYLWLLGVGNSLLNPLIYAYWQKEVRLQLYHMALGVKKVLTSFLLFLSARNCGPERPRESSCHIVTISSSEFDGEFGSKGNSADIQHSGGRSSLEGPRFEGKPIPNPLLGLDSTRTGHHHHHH
Nature of the experiment: 96-Well Cyclic AMP Membrane Assay for RUP3 (Membrane Cyclase Assay). The format is biochemical. The note with it: RUP3 membranes, cAMP Flashplate. As for the experimental part: 96-Well Cyclic AMP Membrane Assay for RUP3
• 1) Adenlyl cyclase Activation Flashplate Assay kit from Perkin Elmer—96 wells (SMP004B) and ^125I tracer (NEX130) which comes with the kit. […] All buffers and membranes should be kept cold (in ice bucket) while performing assay. 20 mM Hepes, pH7.4 1 mM MgCl2 100 mM NaCl 2× Regeneration Buffer (make in binding buffer): 20 mM Phosphocreatine (1.02 gm/200 ml binding buffer) 20 units Creatine phosphokinase (4 mg/200 ml) 20 uM GTP (make up 10.46 mg/ml in binding buffer and add 200 ul/200 ml) 0.2 mM ATP (22.04 mg/200 ml) […] (44.4 mg IBMX dissolved in 1 ml 100% DMSO first and then add the entire amount to 200 ml of buffer). Regeneration buffer can be aliquotted into 40-45 ml portions (in 50 ml sterile tubes) and kept frozen for up to 2 months. Simply put the tube in a beaker with room temperature water to thaw out the regeneration buffer on the day of the assay. […] (Prior to the start of the assay, the frozen membrane pellets for both RUP3 and CMV (cells transfected with an expression plasmid containing no RUP3 sequences), are suspended in binding buffer, usually 1 ml binding buffer for 1 plate of membranes. The membranes are kept in ice all the time, and a polytron (Brinkmann polytron, model # PT-3100) is used (setting 6-7, for 15-20 seconds) to obtain a homogeneous membrane suspension.) Protein concentration is determined by Bradford protein assay kit using instructions given in the kit, using the standard supplied with the kit as a reference. […]

This note sets out measurements from patent US20070066590A1, “Phenyl-and pyridylpiperidine-derivatives as modulators of glucose metabolism” (priority 2003, published 2007).

As usually defined, the IC50 is the concentration that inhibits the measured activity by half. A low value points to greater potency.

In the case of `CCCC1CCN(c2cc(Oc3ccc(C(=O)CC(=O)OC)cc3)ccc2[N+](=O)[O-])CC1` [Compound A30, 3-{4-[4-Nitro-3-(4-propyl-piperidin-1-yl)-phenoxy]-phenyl}-3-oxo-propionic acid methyl ester], in the experiment on HIT-T15 cells [1], the “stimulation of cAMP in HIT-T15 cells” value is “robust stimulator of cAMP”. Also, the “glucose-dependent insulin release in isolated rat islets” value in the experiment with isolated rat islets is reported as “enhance glucose-dependent insulin release”. Besides, the “insulin secretion in HIT cells” value with HIT-T15 cells [2] was “stimulate insulin secretion”. This compound displayed an IC50 on RUP3 of 185 nM.
Regarding `CC(=O)CCc1ccc(Oc2ccc([N+](=O)[O-])c(N3CCC(Sc4ccccn4)CC3)c2)cc1` [Compound A51, 4-(4-{4-Nitro-3-[4-(pyridin-2-ylsulfanyl)-piperidin-1-yl]-phenoxy}-phenyl)-butan-2-one], on RUP3, 346 nM corresponded to half-maximal inhibition (IC50).
Still for that read-out and setting: the result for `O=[N+]([O-])c1ccc(Oc2ccc(-n3cncn3)cc2)cc1N1CCC(Sc2ccccn2)CC1` [Compound A52, 2-{1-[2-Nitro-5-(4-[1,2,4]triazol-1-yl-phenoxy)-phenyl]-piperidin-4-ylsulfanyl}-pyridine] reads 230 nM.
